Experimental data as given in article PMC3551932, “STK295900, a Dual Inhibitor of Topoisomerase 1 and 2, Induces G2 Arrest in the Absence of DNA Damage” (PLoS ONE, 2013).

Experiments:
HT-29 cells = test: Cell growth inhibition assay, HT-29; format: cell-based, human; conditions: Homo sapiens, HT-29, 96 h, growth up to 4 days
Source text: (§1) Human epitheloid cervical carcinoma HeLa cells, human breast adenocarcinoma MCF7 and MDA-MB-231cells, human hepatocellular carcinoma HepG2 cells, human colon adenocarcinoma HT-29 cells, and human colorectal carcinoma HCT-116 cells were purchased from ATCC® and maintained in DMEM medium. Human prostate carcinoma PC-3 cells (purchased from ATCC®), human gastric carcinoma SNU-484 and SNU-601(obtained from Korean Cell Line Bank (KCLB)), human leukemia K-562 and HL-60 cells (purchased from ATCC®), immortalized human prostate epithelial 267B1cells, and immortalized human embryonic lung fibroblast MRC5CV1 cells were maintained in RPMI 1640 medium whereas immortalized retinal pigment epithelial hTERT RPE-1 cells (purchased from ATCC®) were maintained in DMEM/F12 medium. All cell lines were cultured in media supplemented with 10% fetal bovine serum, 100 U/ml penicillin, and […] streptomycin at 37°C in a 5% CO2 incubator.
(§2) Cells were seeded at the appropriate amount (1–2×10^3 cells) in triplicate in 96-well plates for 24 h and then treated with various concentrations of STK295900. Cell growth was determined by using EZ-CyTox cell viability assay kit (Daeil Lab. Service, Seoul, Korea). Ten microliters of WST solution were added to the treated cells at 24, 48, 72, and 96 h. Cells were further incubated at 37°C for 2 h and the absorbance was measured at 450 nm.

K-562 cells = test: Cell growth inhibition assay, K-562; format: cell-based; conditions: Homo sapiens, K562, 96 h; Table 1; K-562, leukemia; growth up to 4 days
Source text: as §1, §2

[1] = target: T1, calf thymus topoisomerase 1 (Bos taurus, UniProt F1MN93); test: Supercoiled DNA relaxation assay for topoisomerase 1; format: biochemical
T1 construct: purified calf thymus topoisomerase 1; purchased Takara Bio, Shiga, Japan; host or cells: calf thymus (tissue-purified)
T1 sequence (F1MN93 1-767): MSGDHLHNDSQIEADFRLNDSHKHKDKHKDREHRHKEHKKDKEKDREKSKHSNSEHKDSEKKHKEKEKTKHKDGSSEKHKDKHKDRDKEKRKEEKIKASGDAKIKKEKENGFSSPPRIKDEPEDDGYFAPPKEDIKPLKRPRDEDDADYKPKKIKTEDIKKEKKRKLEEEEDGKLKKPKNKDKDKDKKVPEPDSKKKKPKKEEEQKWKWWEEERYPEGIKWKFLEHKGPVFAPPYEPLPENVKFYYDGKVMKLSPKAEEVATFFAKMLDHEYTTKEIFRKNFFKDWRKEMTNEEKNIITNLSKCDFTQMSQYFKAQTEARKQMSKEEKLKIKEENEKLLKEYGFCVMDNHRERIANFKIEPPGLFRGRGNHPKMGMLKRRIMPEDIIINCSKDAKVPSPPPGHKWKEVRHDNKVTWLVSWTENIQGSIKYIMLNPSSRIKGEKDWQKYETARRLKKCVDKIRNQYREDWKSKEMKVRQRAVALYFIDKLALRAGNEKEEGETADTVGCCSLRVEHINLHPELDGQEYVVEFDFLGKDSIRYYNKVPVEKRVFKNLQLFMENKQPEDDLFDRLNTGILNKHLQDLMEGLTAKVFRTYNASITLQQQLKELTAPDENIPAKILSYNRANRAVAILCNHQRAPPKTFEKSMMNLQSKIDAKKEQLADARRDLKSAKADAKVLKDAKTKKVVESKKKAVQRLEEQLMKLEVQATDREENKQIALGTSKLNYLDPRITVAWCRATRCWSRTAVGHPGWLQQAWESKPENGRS

PC-3 cells = test: Cell growth inhibition assay, PC-3; format: cell-based; conditions: Homo sapiens, 96 h; Table 1; PC-3, prostate carcinoma; growth up to 4 days
Source text: as §1, §2

HL-60 cells = test: Cell growth inhibition assay, HL-60; format: cell-based; conditions: Homo sapiens, 96 h; Table 1; HL-60, leukemia; growth up to 4 days
Source text: as §1, §2

MRC5CV1 cells = test: Cell growth inhibition assay, MRC5CV1; format: cell-based, human; conditions: Homo sapiens, 96 h; Table 2 comparison; MRC5CV1, non-cancer; growth up to 4 days
Source text: as §1, §2

SNU-484 cells = test: Cell growth inhibition assay, SNU-484; format: cell-based; conditions: Homo sapiens, 96 h; Table 1; SNU-484, gastric carcinoma; growth up to 4 days
Source text: as §1, §2

**Q.** With `Nc1ccc(-c2nc3ccc(-c4ccc5nc(-c6ccc(N)cc6)[nH]c5c4)cc3[nH]2)cc1` [STK295900, 4,4′-(3H,3′H-5,5′-bibenzimidazole-2,2′-diyl)dianiline] as the molecule, how does the IC50 (HT-29 cells; Table 1, HT-29, colon adenocarcinoma) read?
**A.** Its IC50 is 270 nM.

**Q.** And the IC50 (HT-29 cells; Table 2 comparison, HT-29)?
**A.** Its IC50 is 210 nM.

**Q.** What about the IC50 (K-562 cells) of the same molecule?
**A.** Its IC50 is 1380 nM.

**Q.** And the “supercoiled DNA at high concentrations (Top 1 catalytic activity)” value ([1]; high concentrations (50 and 100 µM))?
**A.** The value was “supercoiled DNA could be observed”.

**Q.** And the “Top 1-mediated DNA relaxation” value ([1]; pBR322, 37°C, 30 min, various concentrations)?
**A.** The value was “inhibited DNA relaxation activity of Top 1 in a dose-dependent manner”.

**Q.** What about the IC50 (PC-3 cells) of the same molecule?
**A.** The IC50 was 2720 nM.

**Q.** And the IC50 (HL-60 cells)?
**A.** The IC50 was 500 nM.

**Q.** And the IC50 (MRC5CV1 cells)?
**A.** The IC50 was 950 nM.

**Q.** What about the IC50 (SNU-484 cells) of the same molecule?
**A.** Its IC50 is 1210 nM.
